A short description of data set [1]: Liver microsome metabolic stability in vitro, beagle dog. The data set is classed as in vitro ADME. The settings on record: beagle dog liver microsomes. As to the method:
3.2 preparation of nicotinamide adenine dinucleotide phosphate cofactor solution: an appropriate amount of NADPH powder was weighed and diluted into 10 mM magnesium chloride solution (working solution concentration: 10 unit/mL; final concentration of reaction system: 1 unit/mL);
3.3 preparation of liver microsomes: an appropriate concentration working solution of liver microsomes (human, SD rat, CD-1 mouse, beagle dog) was prepared in 100 mM potassium phosphate buffer;
3.4 preparation of quenching solution: cold (4° C.) acetonitrile containing 200 ng/mL tolbutamide and 200 ng/mL labetalol as internal standard (IS) was used as quenching solution;
3.5 experimental operation:
a. empty “incubation” plates T60 and NCF60 were preheated for 10 minutes;
b. the liver microsomes were diluted to 0.56 mg/mL with 100 mM phosphate buffer;
c. 445 μL of microsomal working solution (0.56 mg/mL) was transferred to the preheated “incubation” plates T60 and NCF60, and then the“incubation” plates T60 and NCF60 were preincubated for 10 min with continuous shaking at 37° C. 54 μL of liver microsomes were transferred to a blank plate, and 6 μL of NAPDH cofactor was added to the blank plate, and then 180 μL of quenching solution was added thereto;
e. for NCF60 plate, 50 μL of buffer was added thereto and the mixture was fully mixed for three times. Timing was started; the plate was shaken at 37° C. for 60 minutes;
f. in “quenching” plate TO, 180 μL of quenching solution and 6 μL of NAPDH cofactor were addded to make sure that the plate was cooled down to prevent evaporation;
g. for T60 plates, the mixture was fully mixed for three times, and 54 μL of mixture was immediately transferred to the “quenching” plate at the 0 min time point. 44 μL of NAPDH cofactor was then added to the culture plate (T60). Timing was started; the plate was shaken at 37° C. for 60 minutes;
h. at 5, 10, 20, 30 and 60 min, 180 μL of quenching solution was added to the “quenching” plate, and the mixture was mixed for one time, and 60 μL of sample was continuously transferred from the T60 plate to the “quenching” plate at each time point;
i. for NCF60: the mixture was mixed for one time, and 60 μL of sample was transferred from the NCF60 culture dish to the “quenching” plate containing quenching solution at 60 minutes time point;
j. all sampling plates were shaked for 10 minutes, then centrifuged at 4000 rpm for 20 minutes at 4° C.;
k. 60 μL of supernatant was transferred into 180 μL of HPLC water and stirred with a plate shaker for 10 min;
1. before LC-MS/MS analysis, each bioanalysis plate was sealed and shaked for 10 minutes.
For orientation: Liver microsomes are a subcellular fraction often used to study metabolism.

Data set [2] in a line: In vivo pharmacokinetic property evaluation in CD-1 mice (IV and PO). The settings on record: mouse, plasma; for MRT last: read-out: MRT0-last. As to the method:
The in vivo pharmacokinetic properties of compound 2 were evaluated in CD-1 mice by intravenous administration and oral administration. IV (intravenous injection) refers to slow administration in jugular vein, and PO (oral administration) refers to administration by gavage. Formulations for intravenous and gavage administration were both 2.5% dimethylsulfoxide, 5% ethanol, 10% cremophor EL, 20% glucose solution (concentration of 5%), 62.5% water. PK time points in the intravenous injection group were 5 min, 15 min, 30 min, 1 h, 2 h, 4 h, 8 h, 12 h and 24 h after administration, respectively, and PK time points in the gastric administration group were 15 min, 30 min, 1 h, 2 h, 4 h, 8 h and 24 h after administration, respectively. Approximately 0.03 mL of blood was collected at each time point. Blood from each sample was transferred to a plastic microcentrifuge tube containing EDTA-K2, centrifuged at 4000 rpm for 5 min in a 4° C. centrifuge, and plasma was collected within 15 min, and the plasma samples were stored in polypropylene tubes. Before the test, samples were stored in a refrigerator at −75±15° C. The concentration of compounds in plasma samples was analyzed using the LCMS/MS method and the following pharmacokinetic parameters were calculated using WinNonlin software (Phoenix™, version 6.1): IV: C0, Cl, Vd, T1/2, AUC0-last, MRT0-last, regression points; PO: Cmax, Tmax, T1/2, AUC0-last, MRT0-last, regression points. Pharmacokinetic data were described using descriptive statistics, such as mean, standard deviation.

Read-outs that look alike come from different tables or passages of the source.

The values that follow come from US20230128137A1, “BENZO FIVE-MEMBERED CYCLIC COMPOUND” (MEDSHINE DISCOVERY INC., priority 2020, published 2023).

By CLint scaled is commonly meant the rate of metabolic loss divided by the concentration. As a reminder, the half-life is how long it takes for the measured level to halve. Low values mean fast loss, high ones slow loss. Usually AUC(0-t) stands for the area under the concentration-time curve up to a stated or last time point. Lower therefore signals low exposure. Broadly, the Cmax is the highest concentration seen after dosing. As usually defined, the Tmax is the time from dosing to the highest level. In data set [1], `CC1(C)CCC(CN2CCN(c3ccc(C(=O)NS(=O)(=O)c4cc([N+](=O)[O-])c(NCC5CCOCC5)c5[nH]cnc45)c(Oc4cnc5[nH]ccc5c4)c3)CC2)=C(c2ccc(Cl)cc2)C1` [Compound 2] showed a CLint scaled at 1 µM of 26.8 mL/min/kg and a half-life at 1 µM of 1.24 h. Moreover, the “Remaining (T = 60 min)” value in data set [1] (60 min incubation) is 52%. For the same molecule, in data set [2] (1 mg/kg, IV, 1 mpk), the AUC(0-t) worked out at 1.8 µM·h, the C0 is 11.7 µM, the clearance worked out at 10.2 mL/min/kg and the half-life is 3.35 h. Further, the MRT last in data set [2] (1 mg/kg, IV, 1 mpk) was determined as 1.21 h. The Vd in data set [2] (1 mg/kg, IV, 1 mpk, read-out: Vdss) amounted to 0.834 L/kg. Further, in data set [2] (50 mg/kg, PO, 50 mpk), the AUC(0-t) is 12.8 µM·h, the highest level (Cmax) was 1.79 µM, the Tmax was found to be 3 h and the half-life was 4.1 h. Moreover, the MRT last in data set [2] (50 mg/kg, PO, 50 mpk) stood at 6.22 h.
